From patent US8592572B2, “Liposome containing shRNA molecule targeting a thymidylate synthase and use thereof” (Delta-Fly Pharma, Inc., priority 2011, dated 2013)

Experiments:
[1] = test system: MSTO 211H tumor; experiment: Antitumor effects of PEG-modified lipoplex upon systemic administration to MSTO 211H cancer-bearing mouse; assay type: in vivo, BALB/c nu/nu male mice; conditions: MSTO 211H tumor-bearing mice; day 21 from beginning of administration; lipoplex 40 μg shRNA i.v. 6 times; pemetrexed 100 mg/kg i.p. 6 times
Experimental: BALB/c nu/nu male mice were subcutaneously inoculated with a MSTO 211H cell suspension (5×10^6 cells/100 μL). On day 14 from tumor cell inoculation, mice with tumor volumes of 50-100 mm^3 were subjected to an in vivo experiment.
The PEG-modified lipoplex prepared in Example 5 was administered via the mouse caudal vein to the MSTO 211H tumor bearing mice at a dose of 40 μg/200 μL (in terms of the shRNA amount) at 1-day intervals for 6 times in total starting on day 14 after tumor transplantation.
When the existing chemotherapeutic agent, pemetrexed sodium hydrate (Alimta (registered trademark) (Eli Lilly Japan K.K.)), was used in combination with the lipoplex, the agent was intraperitoneally administered 6 times in total (day 1, 2, 3, 8, 9 and 10) with 100 mg/kg starting on day 14 after tumor transplantation.
Carcinostatic activity was determined with tumor growth inhibition rate (TGI) (%) at day 21 from beginning of the administration. The TGI (%) was calculated in the same manner as described in the Example 6.

[2] = test system: thymidylate synthase (TS); experiment: siRNA and shRNA-induced TS expression inhibition (transfection with Lf RNAi MAX, Western blotting); assay type: cell-based, human; conditions: 1, 5 or 10 nM, 72 hours after transfection
Experimental: Lipofectamine™ RNAi MAX (hereafter referred to as “Lf RNAi MAX”), which is a cationic liposome, was used as a transfection reagent.
shRNA or siRNA prepared in Example 1 and Lf RNAi MAX were separately diluted with OptiMEM. The resulting solutions were mixed at a ratio of shRNA or siRNA to Lf RNAi MAX of 100 (pmol): 5 (μL). Here, equivalent amounts of the shRNA or siRNA solution and the Lf RNAi MAX solution were used. The obtained liquid mixture was left at room temperature for 10 to 20 minutes, resulting in complex (lipoplex) formation.
Each lipoplex was directly added to a 10-cm dish containing OptiMEM to adjust the total volume to 5 ml. Next, DLD-1 or DLD-1/FU cell suspension (10 ml) was seeded on the dish (500,000 cells/dish) so as to result in a final total volume of 15 ml, followed by transfection. Here, the final concentration of shRNA or siRNA was adjusted to 1, 5, or 10 nM. After the initiation of transfection, culture was carried out in a medium at 37° C. under 5% CO2 for 72 hours. […]
For detection of TS and β-actin, overnight reaction was carried out at 4° C. using the following primary antibodies each diluted with Tween buffer: a mouse monoclonal anti-human TS antibody (1:1000) (ANASPEC, Inc., CA, USA); and a mouse monoclonal anti-human β-actin antibody (1:500) (Bio Vision, Inc., CA, USA). […] The band of each protein of interest was detected on X-ray film.

[3] = test system: DLD-1 cells; experiment: Cancer cell proliferation inhibitory effects of siRNA and shRNA, MTT, DLD-1; assay type: cell-based, human; conditions: 5 nM siRNA/shRNA, in the presence of 5-FU 0.1 μg/mL
Experimental: (§1) In this Example, experimentation was performed on a 96-well plate scale. A lipoplex obtained as in the case of Example 2 was directly added to wells containing OptiMEM to adjust the total volume to 50 μl per well. Next, a DLD-1 or DLD-1/FU cell (human colonic intestinal adenocarcinoma cell) suspension (2,000 cells/100 μl) was added to the wells to which the lipoplex had been added (final total volume: 150 μl), followed by transfection. Here, the final concentration of shRNA or siRNA per well was 5 nM.
(§2) The medium was removed from each well 24 hours after the initiation of transfection. A fresh medium containing or not containing an existing chemotherapeutic agent, 5-FU, was added thereto (200 μl per well). Here, 5-FU was added to DLD-1 so as to result in a concentration of 0.1 μg/mL. 5-FU was added to DLD-1/FU so as to result in a concentration of 10 μg/mL. The medium was removed 0, 24, 48, 72, or 96 hours after the addition of the fresh medium. […] Also, the 0.5% MTT solution was added to cell-free wells to obtain a background absorbance.
(§3) After the completion of incubation, acidic isopropanol (150 μl) was added to each well. […] Absorbance was determined at a wavelength of 570 nm using a plate reader. Then, the cell proliferation rate was calculated. […]

[4] = test system: DLD-1/FU cells; experiment: Cancer cell proliferation inhibitory effects of siRNA and shRNA, MTT, DLD-1/FU; assay type: cell-based, human; conditions: 5 nM siRNA/shRNA, in the presence of 5-FU 10 μg/mL
Experimental: as §1, §2, §3

[5] = test system: MSTO 211H cells; experiment: Human plura malignant mesothelioma cell proliferation inhibitory effects of shRNA, MTT; assay type: cell-based; conditions: 5 or 10 nM shRNA, in the presence of pemetrexed sodium hydrate 10 ng/mL
Experimental: The experiment was carried out according to the method described in Example 3, except for using human plura malignant mesothelioma cell line (MSTO 211H) instead of human colorectal carcinoma cell line (DLD-1 or DLD-1/FU) and using pemetrexed sodium hydrate (Alimta (registered trademark) (Eli Lilly Japan K.K.)) instead of 5-FU as an existing chemotherapeutic agent. In the transfection, the final concentration of shRNA per well was either 5 or 10 nM. Pemetrexed sodium hydrate was added to a fresh medium at 10 ng/mL
Cell proliferation rate (%) was calculated in the same manner as described in the Example 3. FIG. 6 show the results.

| Molecule | tumor growth inhibitory effects (TGI) [1] | TS expression inhibition ([2]; DLD-1/FU cells) | TS expression inhibition ([2]; DLD-1 cells) | inhibition of cell proliferation [3] | inhibition of cell proliferation [4] | inhibition of cell proliferation [5] |
| --- | --- | --- | --- | --- | --- | --- |
| Nc1nc2[nH]cc(CCc3ccc(C(=O)N[C@@H](CCC(=O)O)C(=O)O)cc3)c2c(=O)[nH]1 [pemetrexed sodium hydrate] | approximately 28% |  |  |  |  |  |
| shTS: shRNA targeting TS, SEQ ID NO: 8, 5′-GUAACACCAUCGAUCAUGAUAGUGCUCCUGGUUGUCAUGAUCGAUGGUGUUACUU-3′, with two-uracil 3′ overhang (short hairpin RNA, chemistry not given here, further chemistry not given here) |  | significantly inhibit TS expression | significantly inhibit TS expression | significantly inhibited proliferation | significantly inhibited proliferation | significantly inhibited proliferation |
